The values below come from patent publication US8575114B2, “SGLT-2 inhibitors, methods of making them, and uses thereof” (Albany Molecular Research, Inc., priority 2010, dated 2013).

In one assay the target is hSGLT-2 (Homo sapiens (Human), UniProt P31639). The assay is described as follows: [14C]AMG uptake inhibition in CHO-K1/hSGLT-2 cells. The following applies: 4 μM [14C]AMG, 3-hr incubation at 37° C., read-out: SGLT2, IC50. It is filed as cell-based. The procedure: The inhibitory activity of the compounds of this invention against the SGLT-1 or SGLT-2 transporters can be determined by the following assay. […] CHO-K1 cells transfected with pcDNA3.1 (Invitrogen Corp., Carlsbad, Calif.) containing either the full-length hSGLT-1 or hSGLT-2 using Lipofectamine 2000 (Invitrogen Corp., Carlsbad, Calif.) were selected for stable incorporation of the construct by resistance to the selective pressure of Geneticin (450 μg/ml; Invitrogen Corp., Carlsbad, Calif.). Monoclonal cell lines isolated by minimal dilution were screened for uptake activity of radiolabled methyl α-D-glucopyranoside ([^14C]AMG), a non-metabolizable glucose analogue, and a single clone for each transporter was selected for maximal transporter activity to be used for evaluating the inhibitory activity of the compounds of this invention. In brief, 35,000 cells (CHO-K1/hSGLT-1 or CHO-K1/hSGLT-2) were plated per well of a black tissue culture treated 96-well plate in Ham's F12 media supplemented with 10% heat inactivated FBS and allowed to attached overnight at 37° C. and 5% CO2. Compounds were serially diluted 3-fold in DMSO generating a nine (9) data point dose response curve for each compound. Two replicates were performed per determination. […] Following a 3-hr incubation at 37° C. and 5% CO2, the uptake reaction was stopped by washing the cells three (3) times with ice-cold D-PBS and then lysing the cells with 50 μl of Microscint-20. […] Data were fit to an empirical four-parameter model to determine the inhibitor concentration at half-maximal response (IC50). The assay window was established by control wells incubated with [^14C]AMG in the presence or absence of sodium. A dose response curve for phlorizin was generated on every plate as a positive control.
Chain of hSGLT-2 (P31639 whole entry): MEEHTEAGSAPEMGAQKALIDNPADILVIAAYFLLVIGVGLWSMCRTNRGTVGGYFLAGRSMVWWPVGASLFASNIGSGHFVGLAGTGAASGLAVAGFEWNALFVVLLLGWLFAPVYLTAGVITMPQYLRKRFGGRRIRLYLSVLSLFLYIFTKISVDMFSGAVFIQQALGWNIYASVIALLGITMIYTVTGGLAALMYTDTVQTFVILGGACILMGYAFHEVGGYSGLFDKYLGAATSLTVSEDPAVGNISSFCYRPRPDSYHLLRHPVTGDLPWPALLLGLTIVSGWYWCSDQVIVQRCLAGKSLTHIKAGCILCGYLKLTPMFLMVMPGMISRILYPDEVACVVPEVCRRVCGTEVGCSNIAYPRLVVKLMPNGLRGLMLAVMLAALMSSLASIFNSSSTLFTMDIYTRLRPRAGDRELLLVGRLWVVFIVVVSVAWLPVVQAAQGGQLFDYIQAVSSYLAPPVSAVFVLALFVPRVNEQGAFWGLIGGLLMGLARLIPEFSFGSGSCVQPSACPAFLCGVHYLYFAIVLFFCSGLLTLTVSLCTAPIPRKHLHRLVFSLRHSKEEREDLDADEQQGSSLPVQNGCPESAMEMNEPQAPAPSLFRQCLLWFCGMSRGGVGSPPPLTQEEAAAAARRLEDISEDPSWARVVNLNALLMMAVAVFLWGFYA

Another assay addresses hSGLT-1 (Homo sapiens (Human), UniProt P13866). The assay is described as follows: [14C]AMG uptake inhibition in CHO-K1/hSGLT-1 cells. It is filed as cell-based. As to conditions: 4 μM [14C]AMG, 3-hr incubation at 37° C., read-out: SGLT-1, IC50. From the text:
The inhibitory activity of the compounds of this invention against the SGLT-1 or SGLT-2 transporters can be determined by the following assay. The cDNAs for the human genes of SGLT-1 (SLC5A1—solute carrier family 5 sodium/glucose cotransporter member 1; Accession #NM_000343.1) or SGLT-2 (SLC5A2—member 2; Accession #NM_003041.2) were synthesized (OriGene Technologies, Inc.) and sub-cloned into the mammalian expression vector, pcDNA3.1 (Invitrogen Corp., Carlsbad, Calif.) using standard molecular biology techniques. CHO-K1 cells transfected with pcDNA3.1 (Invitrogen Corp., Carlsbad, Calif.) containing either the full-length hSGLT-1 or hSGLT-2 using Lipofectamine 2000 (Invitrogen Corp., Carlsbad, Calif.) were selected for stable incorporation of the construct by resistance to the selective pressure of Geneticin (450 μg/ml; Invitrogen Corp., Carlsbad, Calif.). Monoclonal cell lines isolated by minimal dilution were screened for uptake activity of radiolabled methyl α-D-glucopyranoside ([^14C]AMG), a non-metabolizable glucose analogue, and a single clone for each transporter was selected for maximal transporter activity to be used for evaluating the inhibitory activity of the compounds of this invention. In brief, 35,000 cells (CHO-K1/hSGLT-1 or CHO-K1/hSGLT-2) were plated per well of a black tissue culture treated 96-well plate in Ham's F12 media supplemented with 10% heat inactivated FBS and allowed to attached overnight at 37° C. and 5% CO2. Compounds were serially diluted 3-fold in DMSO generating a nine (9) data point dose response curve for each compound. Two replicates were performed per determination. The compounds were then diluted into Uptake Buffer (10 mM Hepes, 5 mM Tris, 137 mM NaCl, 5.4 mM KCl, 2.8 mM CaCl2, and 1.2 mM MgSO4, pH 7.4) with a final DMSO concentration of 0.9% (v/v). After the overnight incubation and prior to compound treatment, the cells were washed twice with Sodium Free Buffer in which the sodium chloride was replaced with 137 mM Choline Chloride, and then incubated with 4 μM [^14C]AMG in Uptake Buffer in the presence or absence of diluted compound. Following a 3-hr incubation at 37° C. and 5% CO2, the uptake reaction was stopped by washing the cells three (3) times with ice-cold D-PBS and then lysing the cells with 50 μl of Microscint-20. After 15-min, the amount of radioactivity that was incorporated into the cells was quantified using a Microbeta reader. Data were fit to an empirical four-parameter model to determine the inhibitor concentration at half-maximal response (IC50). The assay window was established by control wells incubated with [^14C]AMG in the presence or absence of sodium. A dose response curve for phlorizin was generated on every plate as a positive control.

Chain of hSGLT-1 (P13866 whole entry): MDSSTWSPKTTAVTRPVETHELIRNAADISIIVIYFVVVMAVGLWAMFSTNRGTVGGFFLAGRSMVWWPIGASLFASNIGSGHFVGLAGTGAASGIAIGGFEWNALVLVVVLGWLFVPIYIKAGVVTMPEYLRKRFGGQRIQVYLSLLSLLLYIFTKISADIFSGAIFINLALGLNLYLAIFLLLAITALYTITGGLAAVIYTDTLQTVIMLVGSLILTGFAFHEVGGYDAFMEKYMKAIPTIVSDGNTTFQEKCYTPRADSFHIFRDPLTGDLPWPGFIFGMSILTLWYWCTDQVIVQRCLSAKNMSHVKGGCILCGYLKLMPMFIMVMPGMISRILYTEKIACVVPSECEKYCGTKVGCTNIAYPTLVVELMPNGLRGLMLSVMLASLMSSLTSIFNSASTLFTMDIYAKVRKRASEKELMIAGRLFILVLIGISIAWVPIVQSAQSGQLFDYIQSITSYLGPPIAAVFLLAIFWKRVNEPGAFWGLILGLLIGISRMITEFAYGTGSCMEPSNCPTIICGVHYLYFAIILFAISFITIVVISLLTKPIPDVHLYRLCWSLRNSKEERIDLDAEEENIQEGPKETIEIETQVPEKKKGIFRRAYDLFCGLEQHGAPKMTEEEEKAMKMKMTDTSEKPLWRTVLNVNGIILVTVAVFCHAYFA

Regarding `O=c1n(Cc2cc([C@@H]3O[C@H](CO)[C@@H](O)[C@H](O)[C@H]3O)ccc2Cl)nc2ccccn12` [I-1, 2-(2-chloro-5-((2S,3R,4R,5S,6R)-3,4,5-trihydroxy-6-(hydroxymethyl)tetrahydro-2H-pyran-2-yl)benzyl)-[1,2,4]triazolo[4,3-a]pyridin-3(2H)-one], the values for the IC50 at hSGLT-2 and on hSGLT-1 were 82.8 nM and 24200 nM, respectively.

`Cc1ccc2nn(Cc3cc([C@@H]4O[C@H](CO)[C@@H](O)[C@H](O)[C@H]4O)ccc3Cl)c(=O)n2c1` [I-2, 2-(2-chloro-5-((2S,3R,4R,5S,6R)-3,4,5-trihydroxy-6-(hydroxymethyl)tetrahydro-2H-pyran-2-yl)benzyl)-6-methyl-[1,2,4]triazolo[4,3-a]pyridin-3(2H)-one]: the half-maximal inhibitory concentration (IC50) (commonly the point on the concentration scale where inhibition reaches its midpoint) on hSGLT-2 was 129 nM; at hSGLT-1, 67400 nM.

Take `O=c1n(Cc2cc([C@@H]3O[C@H](CO)[C@@H](O)[C@H](O)[C@H]3O)ccc2Cl)nc2cc(C(F)(F)F)ccn12` [I-3, 2-(2-chloro-5-((2S,3R,4R,5S,6R)-3,4,5-trihydroxy-6-(hydroxymethyl)tetrahydro-2H-pyran-2-yl)benzyl)-7-(trifluoromethyl)-[1,2,4]triazolo[4,3-a]pyridin-3(2H)-one]: the IC50 worked out at 273 nM on hSGLT-2 and 49500 nM at hSGLT-1.

`O=c1n(Cc2cc([C@@H]3O[C@H](CO)[C@@H](O)[C@H](O)[C@H]3O)ccc2Cl)nc2ccc(C(F)(F)F)cn12` [I-5, 2-(2-chloro-5-((2S,3R,4R,5S,6R)-3,4,5-trihydroxy-6-(hydroxymethyl)tetrahydro-2H-pyran-2-yl)benzyl)-6-(trifluoromethyl)-[1,2,4]triazolo[4,3-a]pyridin-3(2H)-one]: the values for the concentration for half-maximal inhibition (IC50) on hSGLT-2 and at hSGLT-1 were 991 nM and above 90000 nM, respectively.

Take `O=c1n(Cc2cc([C@@H]3O[C@H](CO)[C@@H](O)[C@H](O)[C@H]3O)ccc2Cl)nc2ccc(CO)cn12` [I-6, 2-(2-chloro-5-((2S,3R,4R,5S,6R)-3,4,5-trihydroxy-6-(hydroxymethyl)tetrahydro-2H-pyran-2-yl)benzyl)-6-(hydroxymethyl)-[1,2,4]triazolo[4,3-a]pyridin-3(2H)-one]: the half-inhibitory concentration (IC50) was 145 nM on hSGLT-2 and above 90000 nM at hSGLT-1.

On to `OC[C@H]1O[C@@H](c2ccc(Cl)c(Cn3nc4ccccn4c3=S)c2)[C@H](O)[C@@H](O)[C@@H]1O` [I-7, 2-(2-chloro-5-((2S,3R,4R,5S,6R)-3,4,5-trihydroxy-6-(hydroxymethyl)tetrahydro-2H-pyran-2-yl)benzyl)-[1,2,4]triazolo[4,3-a]pyridine-3(2H)-thione], for which the half-inhibitory concentration (IC50) is 316 nM on hSGLT-2 and above 73200 nM at hSGLT-1.

`O=c1n(Cc2cc([C@@H]3O[C@H](CO)[C@@H](O)[C@H](O)[C@H]3O)ccc2Cl)nc2ccc(Cl)cn12` [I-8, 6-chloro-2-(2-chloro-5-((2S,3R,4R,5S,6R)-3,4,5-trihydroxy-6-(hydroxymethyl)tetrahydro-2H-pyran-2-yl)benzyl)-[1,2,4]triazolo[4,3-a]pyridin-3(2H)-one]: the IC50 was found to be 81.1 nM at hSGLT-2 and 61200 nM at hSGLT-1.

In the case of `Cc1ccn2c(=O)n(Cc3cc([C@@H]4O[C@H](CO)[C@@H](O)[C@H](O)[C@H]4O)ccc3Cl)nc2c1` [I-9, 2-(2-chloro-5-((2S,3R,4R,5S,6R)-3,4,5-trihydroxy-6-(hydroxymethyl)tetrahydro-2H-pyran-2-yl)benzyl)-7-methyl-[1,2,4]triazolo[4,3-a]pyridin-3(2H)-one], the half-inhibitory concentration (IC50) on hSGLT-2 was 109 nM.

For the compound `O=c1n(Cc2cc([C@@H]3O[C@H](CO)[C@@H](O)[C@H](O)[C@H]3O)ccc2Cl)nc2ccc(Br)cn12` [I-10, 6-bromo-2-(2-chloro-5-((2S,3R,4R,5S,6R)-3,4,5-trihydroxy-6-(hydroxymethyl)tetrahydro-2H-pyran-2-yl)benzyl)-[1,2,4]triazolo[4,3-a]pyridin-3(2H)-one], the 50% inhibitory concentration (IC50) on hSGLT-2 was 94.8 nM; on hSGLT-1, 45600 nM.

Consider `O=c1n(Cc2cc([C@@H]3O[C@H](CO)[C@@H](O)[C@H](O)[C@H]3O)ccc2Cl)nc2ccc(F)cn12` [I-11, 2-(2-chloro-5-((2S,3R,4R,5S,6R)-3,4,5-trihydroxy-6-(hydroxymethyl)tetrahydro-2H-pyran-2-yl)benzyl)-6-fluoro-[1,2,4]triazolo[4,3-a]pyridin-3(2H)-one], for which the IC50 on hSGLT-2 came out at 222 nM.

On to `Cc1cc2nn(Cc3cc([C@@H]4O[C@H](CO)[C@@H](O)[C@H](O)[C@H]4O)ccc3Cl)c(=O)n2cc1Cl` [I-12, 6-chloro-2-(2-chloro-5-((2S,3R,4R,5S,6R)-3,4,5-trihydroxy-6-(hydroxymethyl)tetrahydro-2H-pyran-2-yl)benzyl)-7-methyl-[1,2,4]triazolo[4,3-a]pyridin-3(2H)-one], for which the half-inhibitory concentration (IC50) is 36.6 nM on hSGLT-2 and above 90000 nM on hSGLT-1.

On to `O=c1n(Cc2cc([C@@H]3O[C@H](CO)[C@@H](O)[C@H](O)[C@H]3O)ccc2Cl)nc2cc(CO)ccn12` [I-14, 2-(2-chloro-5-((2S,3R,4R,5S,6R)-3,4,5-trihydroxy-6-(hydroxymethyl)tetrahydro-2H-pyran-2-yl)benzyl)-7-(hydroxymethyl)-[1,2,4]triazolo[4,3-a]pyridin-3(2H)-one], for which the results for the concentration for half-maximal inhibition (IC50) on hSGLT-2 and on hSGLT-1 were 170 nM and above 90000 nM, respectively.

Take `O=c1n(Cc2cc([C@@H]3O[C@H](CO)[C@@H](O)[C@H](O)[C@H]3O)ccc2Cl)nc2ccc(CCO)cn12` [I-15, 2-(2-chloro-5-((2S,3R,4R,5S,6R)-3,4,5-trihydroxy-6-(hydroxymethyl)tetrahydro-2H-pyran-2-yl)benzyl)-6-(2-hydroxyethyl)-[1,2,4]triazolo[4,3-a]pyridin-3(2H)-one]: the IC50 on hSGLT-2 was 463 nM; at hSGLT-1, above 90000 nM.

Take `OC[C@H]1O[C@@H](c2ccc(Cl)c(Cc3ccc4ncnn4c3)c2)[C@H](O)[C@@H](O)[C@@H]1O` [II-1, (2S,3R,4R,5S,6R)-2-(3-([1,2,4]triazolo[1,5-a]pyridin-6-ylmethyl)-4-chlorophenyl)-6-(hydroxymethyl)tetrahydro-2H-pyran-3,4,5-triol]: the half-maximal inhibitory concentration (IC50) on hSGLT-2 is 226 nM; at hSGLT-1 it was above 90000 nM.

Turning to `O=c1c2ccoc2ccn1Cc1cc([C@@H]2O[C@H](CO)[C@@H](O)[C@H](O)[C@H]2O)ccc1Cl` [II-2, 5-(2-chloro-5-((2S,3R,4R,5S,6R)-3,4,5-trihydroxy-6-(hydroxymethyl)tetrahydro-2H-pyran-2-yl)benzyl)furo[3,2-c]pyridin-4(5H)-one], the 50% inhibitory concentration (IC50) on hSGLT-2 was 542 nM; at hSGLT-1, 71500 nM.

For the compound `O=C1CN(c2ccc(Cc3cc([C@@H]4O[C@H](CO)[C@@H](O)[C@H](O)[C@H]4O)ccc3Cl)cc2)C(=O)N1C(c1ccccc1)(c1ccccc1)c1ccccc1` [III-1, 1-(4-(2-chloro-5-((2S,3R,4R,5S,6R)-3,4,5-trihydroxy-6-(hydroxymethyl)tetrahydro-2H-pyran-2-yl)benzyl)phenyl)-3-tritylimidazolidine-2,4-dione], the results for the IC50 on hSGLT-2 and on hSGLT-1 were 329 nM and 6250 nM, respectively.
